Test results reported in patent publication US9670514B2, “Method for producing polysaccharide” (SANYO CHEMICAL INDUSTRIES, LTD., priority 2011, dated 2017).

Columns and labels:
[1] = test system: nucleoside diphosphate kinase; experiment: Michaelis constant Km of uridine triphosphate synthesis using; format: biochemical, rat; details: uridine diphosphate as substrate, adenosine triphosphate as phosphate donor, 30° C., Hanes-Woolf plot
Procedure: The Michaelis constant Km can be determined through determination of the dependence of the initial enzyme reaction velocity on the substrate concentration in accordance with the method reported by Agarwal et al. (described in Methods of Enzymology, 1978, Vol. 51, pp. 483-491). (D4-1) in a purified form is used for the measurement of the Michaelis constant Km. The inhibitory concentration IC50 is determined by the method described above. […]
(D4-1-2) obtained in Preparation 8 was dissolved in 890 μL of aqueous solution 7 (50 mM phosphate buffer (pH of 7.5, 25° C.) containing 5 mM magnesium chloride and 100 mM adenosine triphosphate (available from Sigma-Aldrich Corporation)) in a 1.5 mL-tube. […] The supernatant (80 μL) was analyzed by HPLC, and the peak areas of uridine triphosphate were recorded.
Solutions were prepared by changing the molar concentration of sodium uridine diphosphate in substrate solution [2-1] to 5 mM (substrate solution [2-2]), 2 mM (substrate solution [2-3]), 1 mM (substrate solution [2-4]), and 0.3 mM (substrate solution [2-5]). […] The peak areas of uridine triphosphate were recorded for enzyme reaction solutions (IV-2-2) to (IV-2-5) in a similar manner for enzyme reaction solution (IV-2-1). […]

arginine kinase = experiment: Michaelis constant Km of uridine triphosphate synthesis using arginine kinase; format: biochemical, Toxoplasma gondii; details: uridine diphosphate as substrate, ω-phosphono-L-arginine as phosphate donor
Procedure: Arginine kinase aqueous solution (D4-1-3) was obtained in a similar manner as in Preparation 1, except that a “gene encoding the amino acid sequence of SEQ ID NO: 9 derived from Toxoplasma gondii” was used in place of the “gene encoding the amino acid sequence of SEQ ID NO: 1 derived from Streptococcus equisimilis”.
The tube was allowed to stand at 30° C. for 3 minutes in a constant temperature water bath. To the tube was added 100 μL of temperature-adjusted (30° C.) substrate solution [2-1] (a solution obtained by dissolving sodium uridine diphosphate to a concentration of 10 mM in buffer solution B). Thereby, enzyme reaction solution (IV-2-1) was obtained. A portion (100 μL) of (IV-2-1) was extracted immediately after preparation and at 1-minute intervals. The extracted portions were heated at 100° C. for 2 minutes to stop the enzyme reaction, and centrifuged using a centrifuge (4° C., 12,000×g, 10 min) to precipitate impurities. The supernatant (80 μL) was analyzed by HPLC, and the peak areas of uridine triphosphate were recorded.
A Hanes-Woolf plot was constructed using the calculated initial enzyme reaction velocity v, with the horizontal axis (x-axis) plotting each substrate concentration [S], and the vertical axis (y-axis) plotting the […] of the initial enzyme reaction velocity at each substrate concentration. […]

O=c1ccn([C@@H]2O[C@H](COP(=O)(O)OP(=O)(O)O)[C@@H](O)[C@H]2O)c(=O)[nH]1 [uridine diphosphate]
Km [1]: 250 µM
Km (arginine kinase): 710 µM
